Laboratory results as given in US7691601B2, “Medium for detecting and/or identifying of microorganisms” (priority 2003, dated 2010).

What was measured:
[1] = Colonies column read for stool without added strain, Salmonella detection medium; parameters: key: 0=no coloration; 0.5=trace of coloration; 1=weak coloration; 2=strong coloration; details: no strain
Method: (§1) Preparation of the detection medium: A volume of 250 ml of detection medium is prepared from a powdered medium having the following composition:
(§2) Melting is carried out at 100° C., and the medium is autoclaved at 121° C. for 15 minutes. The additives are then added to the medium: Magenta C8 (500 mg/l; B-7102, BIOSYNTH, Staad, Switzerland); X-glucoside (75 mg/l; B-7250, BIOSYNTH, Staad, Switzerland); cefsulodine (10 mg/l; C 4786, Sigma, St Quentin Fallavier, France) and various concentrations of the inhibitor O,O-diethyl p-nitrophenyl phosphate (Paraoxon® ethyl; CAS No. 311-45-5; 36186, Riedel-de Haën, St Quentin Fallavier, France; 0; 1; 5 or 10 mg/l).
(§3) The various detection media thus obtained are then poured into Petri dishes.
(§4) Seeding of Salmonella bacteria: 10 μl of stools are deposited onto a Petri dish, this stool suspension is mixed or not mixed with 10 μl of a suspension of Salmonella (0.5 McF) and isolated as 3 dials on a Petri dish. Various […] and various Salmonella strains originating from the applicant's collection are used according to this protocol. The Petri dishes are incubated at 37° C. for 24 hours. The appearance of a coloration at the point of deposit of the stool (“deposit” column) and at the Salmonella colony (“colony” column) is read according to a semi-quantitative scale: • 0=no coloration • 0.5=trace of coloration • 1=weak coloration • 2=strong coloration The results obtained are given in Table 1.
as §2, with “O,O-dimethyl” for “O,O-diethyl”, “methyl;” for “ethyl;”, “950-35-6;” for “311-45-5; 36186,”, “5, 10, 25” for “0; 1; 5 or 10”
(§5) Seeding of Salmonella bacteria: The Petri dishes are inoculated, incubated and read as in Example 1.
(§6) Preparation of the detection medium: 250 ml of the medium of Example 1, in which the O,O-diethyl p-nitrophenyl phosphate is replaced with various concentrations of O,O-di-(2-chloroethyl)-O-(3-chloro-4-methylcoumarin-7-yl)phosphate (Haloxon®; CAS No. 321-55-1; R276995, Sigma, St Quentin Fallavier, France; 0; 1; 10; 100 or 1000 mg/l), are prepared according to the method of Example 1.
(§7) The various selection media thus obtained are then poured into Petri dishes.

[2] = Colonies column read for stool without added strain, Candida detection medium; parameters: key: 0=absence of coloration; 0.5=trace coloration; 1=weak coloration; 2=strong coloration; details: Table 4, no strain
Method: as §1
(§8) Melting is carried out at 100° C., and the medium is autoclaved at 121° C. for 15 minutes. The additives are then added to the medium: Magenta C8 (500 mg/l; B-7102, BIOSYNTH, Staad, Switzerland); X-glucoside (75 mg/l; B-7250, BIOSYNTH, Staad, Switzerland); cefsulodine (10 mg/l; C 4786, Sigma, St Quentin Fallavier, France), and also the esterase inhibitor: • ? O,O-diethyl p-nitrophenyl phosphate: 5 mg/l • ? O,O-dimethyl p-nitrophenyl phosphate: 25 mg/l or • ? O,O-di-(2-chloroethyl)-O-(3-chloro-4-methylcoumarin-7-yl)phosphate: 75 mg/l
as §7
(§9) Seeding of yeast of the Candida genus: 10 μl of stools are deposited onto a Petri dish, and this stool suspension is mixed or not mixed with 10 μl of a suspension of Candida and isolated as 3 dials on a Petri dish. Various stools and various strains of Candida genus originating from the applicant's collection are used according to this protocol. The Petri dishes are incubated at 37° C. for 24 hours.
(§10) The appearance of a coloration at the point of deposit of the stool and in the Candida colonies is read according to a semi-quantitative scale: • 0=absence of coloration • 0.5=trace coloration • 1=weak coloration • 2=strong coloration.

[3] = tested on: Candida krusei; test: Coloration of Candida krusei colonies on detection medium; format: cell-based; parameters: key: 0=absence of coloration; 0.5=trace coloration; 1=weak coloration; 2=strong coloration
Method: as §1, §8, §7, §9, §10

[4] = tested on: free esterases in stools; test: Coloration at the point of deposit of the stool on Candida detection medium; format: biochemical; parameters: key: 0=absence of coloration; 0.5=trace coloration; 1=weak coloration; 2=strong coloration; details: Table 4, no strain
Method: as §1, §8, §7, §9, §10

[5] = tested on: Candida albicans; test: Coloration of Candida albicans colonies on detection medium; format: cell-based; parameters: key: 0=absence of coloration; 0.5=trace coloration; 1=weak coloration; 2=strong coloration; details: stool B
Method: as §1, §8, §7, §9, §10

[6] = tested on: free esterases in stools; test: Coloration at the point of deposit of the stool on Candida detection medium; format: biochemical; parameters: key: 0=no coloration; 0.5=trace of coloration; 1=weak coloration; 2=strong coloration; details: Table 4
Method: as §1, §8, §7, §9, §10

[7] = tested on: Salmonella Enteritidis; test: Coloration of Salmonella Enteritidis colonies on detection medium; format: cell-based; parameters: key: 0=no coloration; 0.5=trace of coloration; 1=weak coloration; 2=strong coloration
Method: as §1, §2, §3, §4
as §2, with “O,O-dimethyl” for “O,O-diethyl”, “methyl;” for “ethyl;”, “950-35-6;” for “311-45-5; 36186,”, “5, 10, 25” for “0; 1; 5 or 10”
as §5, §6, §7

[8] = tested on: Candida albicans; test: Coloration of Candida albicans colonies on detection medium; format: cell-based; parameters: key: 0=no coloration; 0.5=trace of coloration; 1=weak coloration; 2=strong coloration; details: stool A
Method: as §1, §8, §7, §9, §10

[9] = tested on: Salmonella Typhi; test: Coloration of Salmonella Typhi colonies on detection medium; format: cell-based; parameters: key: 0=no coloration; 0.5=trace of coloration; 1=weak coloration; 2=strong coloration
Method: as §1, §2, §3, §4
as §2, with “O,O-dimethyl” for “O,O-diethyl”, “methyl;” for “ethyl;”, “950-35-6;” for “311-45-5; 36186,”, “5, 10, 25” for “0; 1; 5 or 10”
as §5, §6, §7

CCOP(=O)(OCC)Oc1ccc([N+](=O)[O-])cc1 [O,O-diethyl p-nitrophenyl phosphate]
Colonies coloration ([1]; Table 1, 1 mg/l, stool A): 0 | Colonies coloration ([1]; Table 1, 1 mg/l, stool B): 0 | Colonies coloration ([1]; Table 1, 5 mg/l, stool A): 0 | Colonies coloration ([1]; Table 1, 5 mg/l, stool B): 0 | Colonies coloration ([1]; Table 1, 10 mg/l, stool A): 0 | Colonies coloration ([1]; Table 1, 10 mg/l, stool B): 0 | Colonies coloration ([2]; 5 mg/l, stool A): 0 | Colonies coloration ([2]; 5 mg/l, stool B): 0 | Colonies coloration ([3]; Table 4, 5 mg/l, stool A): 0.5 | Colonies coloration ([3]; Table 4, 5 mg/l, stool B): 0.5 | Deposit coloration ([4]; 5 mg/l, stool A): 0 | Deposit coloration ([4]; 5 mg/l, stool B): 0 | Colonies coloration ([5]; Table 4, 5 mg/l): 0.5 | Deposit coloration ([6]; 5 mg/l, stool A, Candida albicans): 1 | Deposit coloration ([6]; 5 mg/l, stool A, Candida dubliniensis): 1 | Deposit coloration ([6]; 5 mg/l, stool A, Candida krusei): 1 | Deposit coloration ([6]; 5 mg/l, stool B, Candida albicans): 1 | Deposit coloration ([6]; 5 mg/l, stool B, Candida dubliniensis): 1 | Deposit coloration ([6]; 5 mg/l, stool B, Candida krusei): 1 | Colonies coloration ([7]; Table 1, 1 mg/l, stool A): 2 | Colonies coloration ([7]; Table 1, 1 mg/l, stool B): 2 | Colonies coloration ([7]; Table 1, 5 mg/l, stool A): 2 | Colonies coloration ([7]; Table 1, 5 mg/l, stool B): 2 | Colonies coloration ([7]; Table 1, 10 mg/l, stool A): 2 | Colonies coloration ([7]; Table 1, 10 mg/l, stool B): 2 | Colonies coloration ([8]; Table 4, 5 mg/l): 1 | Colonies coloration ([9]; Table 1, 1 mg/l, stool A): 1 | Colonies coloration ([9]; Table 1, 1 mg/l, stool B): 1 | Colonies coloration ([9]; Table 1, 5 mg/l, stool A): 1 | Colonies coloration ([9]; Table 1, 5 mg/l, stool B): 1 | Colonies coloration ([9]; Table 1, 10 mg/l, stool A): 1 | Colonies coloration ([9]; Table 1, 10 mg/l, stool B): 1

Cc1c(Cl)c(=O)oc2cc(OP(=O)(OCCCl)OCCCl)ccc12 [O,O-di-(2-chloroethyl)-O-(3-chloro-4-methylcoumarin-7-yl) phosphate]
Colonies coloration ([1]; Table 3, 1 mg/l, stool A): 0 | Colonies coloration ([1]; Table 3, 1 mg/l, stool B): 0 | Colonies coloration ([1]; Table 3, 10 mg/l, stool A): 0 | Colonies coloration ([1]; Table 3, 10 mg/l, stool B): 0 | Colonies coloration ([1]; Table 3, 100 mg/l, stool A): 0 | Colonies coloration ([1]; Table 3, 100 mg/l, stool B): 0 | Colonies coloration ([1]; Table 3, 1000 mg/l, stool A): 0 | Colonies coloration ([1]; Table 3, 1000 mg/l, stool B): 0 | Colonies coloration ([2]; 75 mg/l, stool A): 0 | Colonies coloration ([2]; 75 mg/l, stool B): 0 | Colonies coloration ([3]; Table 4, 75 mg/l, stool A): 0.5 | Colonies coloration ([3]; Table 4, 75 mg/l, stool B): 0.5 | Deposit coloration ([4]; 75 mg/l, stool A): 0 | Deposit coloration ([4]; 75 mg/l, stool B): 0 | Colonies coloration ([5]; Table 4, 75 mg/l): 0.5 | Deposit coloration ([6]; 75 mg/l, stool A, Candida albicans): 1 | Deposit coloration ([6]; 75 mg/l, stool A, Candida dubliniensis): 1 | Deposit coloration ([6]; 75 mg/l, stool A, Candida krusei): 1 | Deposit coloration ([6]; 75 mg/l, stool B, Candida albicans): 1 | Deposit coloration ([6]; 75 mg/l, stool B, Candida dubliniensis): 1 | Deposit coloration ([6]; 75 mg/l, stool B, Candida krusei): 1 | Colonies coloration ([7]; Table 3, 1 mg/l, stool A): 2 | Colonies coloration ([7]; Table 3, 1 mg/l, stool B): 2 | Colonies coloration ([7]; Table 3, 10 mg/l, stool A): 2 | Colonies coloration ([7]; Table 3, 10 mg/l, stool B): 2 | Colonies coloration ([7]; Table 3, 100 mg/l, stool A): 2 | Colonies coloration ([7]; Table 3, 100 mg/l, stool B): 2 | Colonies coloration ([7]; Table 3, 1000 mg/l, stool A): 2 | Colonies coloration ([7]; Table 3, 1000 mg/l, stool B): 2 | Colonies coloration ([8]; Table 4, 75 mg/l): 1 | Colonies coloration ([9]; Table 3, 1 mg/l, stool A): 1 | Colonies coloration ([9]; Table 3, 1 mg/l, stool B): 1 | Colonies coloration ([9]; Table 3, 10 mg/l, stool A): 1 | Colonies coloration ([9]; Table 3, 10 mg/l, stool B): 1 | Colonies coloration ([9]; Table 3, 100 mg/l, stool A): 1 | Colonies coloration ([9]; Table 3, 100 mg/l, stool B): 1 | Colonies coloration ([9]; Table 3, 1000 mg/l, stool A): 1 | Colonies coloration ([9]; Table 3, 1000 mg/l, stool B): 1

COP(=O)(OC)Oc1ccc([N+](=O)[O-])cc1 [O,O-dimethyl p-nitrophenyl phosphate]
Colonies coloration ([1]; Table 2, 5 mg/l, stool C): 0 | Colonies coloration ([1]; Table 2, 5 mg/l, stool D): 0 | Colonies coloration ([1]; Table 2, 10 mg/l, stool C): 0 | Colonies coloration ([1]; Table 2, 10 mg/l, stool D): 0 | Colonies coloration ([1]; Table 2, 25 mg/l, stool C): 0 | Colonies coloration ([1]; Table 2, 25 mg/l, stool D): 0 | Colonies coloration ([2]; 25 mg/l, stool A): 0 | Colonies coloration ([2]; 25 mg/l, stool B): 0 | Colonies coloration ([3]; Table 4, 25 mg/l, stool A): 0.5 | Colonies coloration ([3]; Table 4, 25 mg/l, stool B): 0.5 | Deposit coloration ([4]; 25 mg/l, stool A): 0 | Deposit coloration ([4]; 25 mg/l, stool B): 0 | Colonies coloration ([5]; Table 4, 25 mg/l): 0.5 | Deposit coloration ([6]; 25 mg/l, stool A, Candida albicans): 1 | Deposit coloration ([6]; 25 mg/l, stool A, Candida dubliniensis): 1 | Deposit coloration ([6]; 25 mg/l, stool A, Candida krusei): 1 | Deposit coloration ([6]; 25 mg/l, stool B, Candida albicans): 1 | Deposit coloration ([6]; 25 mg/l, stool B, Candida dubliniensis): 1 | Deposit coloration ([6]; 25 mg/l, stool B, Candida krusei): 1 | Colonies coloration ([7]; Table 2, 5 mg/l, stool C): 2 | Colonies coloration ([7]; Table 2, 5 mg/l, stool D): 2 | Colonies coloration ([7]; Table 2, 10 mg/l, stool C): 2 | Colonies coloration ([7]; Table 2, 10 mg/l, stool D): 2 | Colonies coloration ([7]; Table 2, 25 mg/l, stool C): 2 | Colonies coloration ([7]; Table 2, 25 mg/l, stool D): 2 | Colonies coloration ([8]; Table 4, 25 mg/l): 1 | Colonies coloration ([9]; Table 2, 5 mg/l, stool C): 0.5 | Colonies coloration ([9]; Table 2, 5 mg/l, stool D): 0.5 | Colonies coloration ([9]; Table 2, 10 mg/l, stool C): 1 | Colonies coloration ([9]; Table 2, 10 mg/l, stool D): 0.5 | Colonies coloration ([9]; Table 2, 25 mg/l, stool C): 0.5 | Colonies coloration ([9]; Table 2, 25 mg/l, stool D): 0.5
